Measured values published in publication PMC3967968 (Molecular Biology of the Cell, 2014).

Columns and labels:
human EB1 = details: read-out: Kd with human EB1, ref Honnappa et al. 2005; cited from earlier work
MBP-fused Drosophila EB1 = biological target: T1, MBP-fused Drosophila EB1 (Drosophila, UniProt Q9XZ57 1-290); test: ITC
T1 sequence (looked up): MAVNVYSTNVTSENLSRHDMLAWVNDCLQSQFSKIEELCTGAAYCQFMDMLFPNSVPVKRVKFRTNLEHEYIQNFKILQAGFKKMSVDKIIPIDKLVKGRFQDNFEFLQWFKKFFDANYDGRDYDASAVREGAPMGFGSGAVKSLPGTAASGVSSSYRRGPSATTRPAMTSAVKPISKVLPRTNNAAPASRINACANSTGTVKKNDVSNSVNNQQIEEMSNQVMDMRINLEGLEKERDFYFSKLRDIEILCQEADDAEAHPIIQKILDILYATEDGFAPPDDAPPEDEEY

Row | Molecule | Kd (human EB1) | Kd (MBP-fused Drosophila EB1)
1 | adenomatous polyposis coli protein: native human EB1-interacting protein | ~5000 nM | 
2 | RTRGRSRIPRWVGRRG [aptamer Perfect peptide] |  | ~570 nM
